In patent US6309882A, “Antisense inhibition of replication protein a p70 subunit” (ISIS Pharmaceuticals, Inc., priority 1999, dated 2001):

System: A549 cells
Assay: Tumor cell survival, cell number by hemocytometer
Type: cell-based, human
Settings: A549, 400 nM, 72 hours
Procedure: To determine the effects of ISIS 12790 on tumor cell survival, T24, A549, Mia Paca II, and SW480 cells were treated with either ISIS 12790 or ISIS 13706 (a 20-mer with identical nucleotide composition but containing 7 mismatches relative to the target) and surviving cells counted 72 hours later.
For experiments where cell number was measured directly by hemocytometer, cells were plated in six well dishes 24 hr prior to the experiment and transfected at approximately 50-70% confluency with various phosphorothioate oligonucleotides at 400 nM, as described above. Following a single transfection, the cells were allowed to recover 72 hours. After 72 hr the cells were washed, trypsinized, and cell number was determined by hemocytometer. For each experiment, treatments were performed in triplicate wells. The number of cells corresponding to each well was determined twice.
Statistical analysis of mRNA levels and cell survival data were performed using BMDP Statistical package, Version 7.0 (BMDP Statistical Software, Inc., Los Angeles, Calif.). Data were subjected to ANOVA and the results were expressed in terms of F-values, t-values, and significance. For cell survival data, analyses included repeated measurements with 3 between factors (drug, concentration, and position). For mRNA levels only the 3 between factors were considered. Global comparisons were performed with F-tests and pairwise comparisons with t-tests. In each case, since there was no interaction with position, results were pooled and analyzed with two between factors (drug and concentration). Treatment with ISIS 12790 was associated with decreased cell number in all four tumor cell lines (see Table 4). The decrease in cell number observed in T24 cells was 79%. The decrease observed in the other three cell lines was: A549, 98% decrease; Mia Paca II, 85% decrease; SW480, 81% decrease.

ISIS 12790: phosphorothioate oligodeoxynucleotide TGGTCTGCAGTTAGGGTCAG, SEQ ID NO 15, 3'-UTR 2230-2249, non-allele specific (DNA, all phosphorothioate, methylation of C not given here)
% Cell Killing: 98%
% Cell Survival: 2%
decrease in cell number: 98%
